Marks after values point to notes of the source that are not given here.
Tested on: subjects who completed REDUCE-1 or REDUCE-2 without ulcer
Experiment: Follow-on safety study (28 weeks) after REDUCE-1 or REDUCE-2: adverse events
[1] = TEAE, follow-on study, Preferred Term
[2] = TEAE, follow-on study, System Organ Class

CC(C)Cc1ccc(C(C)C(=O)O)cc1 (centres unmarked) [Ibuprofen, 2-(p-isobutylphenyl)propionic acid]
AEs Leading to Discontinuation, Incidence (%) (Follow-on Study): 2.1%
AEs by Relatedness: Possibly Related, Incidence (%) (Follow-on Study): 8.5%
AEs by Relatedness: Probably Not Related, Incidence (%) (Follow-on Study): 25.5%
AEs by Severity: Life Threatening, Incidence (%) (Follow-on Study): 0.0%
AEs by Severity: Mild, Incidence (%) (Follow-on Study): 10.6%
AEs by Severity: Moderate, Incidence (%) (Follow-on Study): 19.1%
AEs by Severity: Severe, Incidence (%) (Follow-on Study): 4.3%
Abdominal Pain Upper, Incidence (%) (Follow-on Study): 0.0 (0) %
Abdominal Tenderness, Incidence % (Follow-on Study): 2.1 (0) %
Any GI Event, Incidence (%) (Follow-on Study): 4.3 (2)* %
Constipation, Incidence (%) (Follow-on Study): 0.0 (0) %
Deaths, Incidence % (Follow-on Study): 0.0(0) %
Diarrhea, Incidence (%) (Follow-on Study): 2.1 (1) %
Dyspepsia, Incidence (%) (Follow-on Study): 0.0 (0) %
General Disorders/Administrative Site Conditions, Incidence (%) (Follow-on Study): 4.3(2) %
Hepatobiliary Disorders, Incidence (%) (Follow-on Study): 2.1(1) %
Hypertension, Incidence (%) (Follow-on Study): 0.0(0) %
Infections/Infestations, Incidence (%) (Follow-on Study): 14.9(7) %
Injury, Poisoning, Procedural Complications, Incidence (%) (Follow-on Study): 4.3(2) %
Metabolism and Nutrition Disorders, Incidence % (Follow-on Study): 8.5(4)* %
Musculoskeletal/connective Tissue Disorders, Incidence (%) (Follow-on Study): 2.1(1) %
Nausea, Incidence (%) (Follow-on Study): 0.0 (0) %
Nervous System Disorders, Incidence (%) (Follow-on Study): 4.3(2) %
Respiratory, Thoracic and Mediastinal Disorders, Incidence (%) (Follow-on Study): 2.1(1) %
SAEs leading to discontinuation, Incidence % (Follow-on Study): 0.0(0) %
Subjects with at least one AE, Incidence (%) (Follow-on Study): 34.0%
Total SAEs, Incidence % (Follow-on Study): 4.3(2) %
Withdrawals due to GI, Incidence (%) (Follow-on Study): 0.0 (0) %
Abdominal discomfort [1]: 2.1 (1) % (n)
Abdominal distension [1]: 0.0 (0) % (n)
Abdominal pain [1]: 2.1 (1) % (n)
Abdominal pain upper [1]: 2.1 (1) % (n)
Abdominal tenderness [1]: 2.1 (1) % (n)
Accidental overdose [1]: 2.1 (1) % (n)
Anaemia [1]: 2.1 (1) % (n)
Animal bite [1]: 0.0 (0) % (n)
Anxiety [1]: 2.1 (1) % (n)
Arthralgia [1]: 4.3 (2) % (n)
Asthma [1]: 0.0 (0) % (n)
Back pain [1]: 0.0 (0) % (n)
Blood creatinine increased [1]: 0.0 (0) % (n)
Blood pressure increased [1]: 0.0 (0) % (n)
Bronchitis [1]: 2.1 (1) % (n)
Bronchitis acute [1]: 2.1 (1) % (n)
Carpal tunnel syndrome [1]: 0.0 (0) % (n)
Cataract [1]: 2.1 (1) % (n)
Cholelithiasis [1]: 2.1 (1) % (n)
Conjunctivitis [1]: 2.1 (1) % (n)
Constipation [1]: 4.3 (2) % (n)
Contusion [1]: 2.1 (1) % (n)
Cough [1]: 0.0 (0) % (n)
Dermatitis [1]: 2.1 (1) % (n)
Dermatitis contact [1]: 2.1 (1) % (n)
Diabetes mellitus [1]: 2.1 (1) % (n)
Diabetes mellitus non-insulin-dependent [1]: 2.1 (1) % (n)
Diarrhoea [1]: 8.5 (4) % (n)
Dizziness [1]: 2.1 (1) % (n)
Dyspepsia [1]: 2.1 (1) % (n)
Ear infection [1]: 2.1 (1) % (n)
Eczema [1]: 2.1 (1) % (n)
Fall [1]: 2.1 (1) % (n)
Flatulence [1]: 2.1 (1) % (n)
Folliculitis [1]: 2.1 (1) % (n)
Foot fracture [1]: 2.1 (1) % (n)
Gait disturbance [1]: 2.1 (1) % (n)
Gastritis [1]: 2.1 (1) % (n)
Gastroenteritis [1]: 0.0 (0) % (n)
Gastroenteritis viral [1]: 4.3 (2) % (n)
Gastrooesophageal reflux disease [1]: 2.1 (1) % (n)
Headache [1]: 0.0 (0) % (n)
Hypercholesterolaemia [1]: 2.1 (1) % (n)
Hyperglycaemia [1]: 2.1 (1) % (n)
Hyperlipidaemia [1]: 2.1 (1) % (n)
Hyperosmolar state [1]: 2.1 (1) % (n)
Hypertension [1]: 2.1 (1) % (n)
Influenza [1]: 2.1 (1) % (n)
Intestinal spasm [1]: 2.1 (1) % (n)
Joint injury [1]: 2.1 (1) % (n)
Joint sprain [1]: 2.1 (1) % (n)
Joint swelling [1]: 2.1 (1) % (n)
Knee deformity [1]: 2.1 (1) % (n)
Laryngitis [1]: 4.3 (2) % (n)
Limb crushing injury [1]: 2.1 (1) % (n)
Lower respiratory tract infection [1]: 4.3 (2) % (n)
Migraine [1]: 2.1 (1) % (n)
Mood swings [1]: 2.1 (1) % (n)
Muscle spasms [1]: 0.0 (0) % (n)
Musculoskeletal pain [1]: 4.3 (2) % (n)
Nasopharyngitis [1]: 2.1 (1) % (n)
Nausea [1]: 4.3 (2) % (n)
Neck injury [1]: 2.1 (1) % (n)
Neck pain [1]: 2.1 (1) % (n)
Nerve compression [1]: 2.1 (1) % (n)
Non-cardiac chest pain [1]: 2.1 (1) % (n)
Oedema peripheral [1]: 6.4 (3) % (n)
Oesophageal stenosis [1]: 2.1 (1) % (n)
Otitis media [1]: 0.0 (0) % (n)
Pharyngolaryngeal pain [1]: 2.1 (1) % (n)
Plantar fasciitis [1]: 2.1 (1) % (n)
Pneumonia [1]: 2.1 (1) % (n)
Rib fracture [1]: 4.3 (2) % (n)
Road traffic accident [1]: 2.1 (1) % (n)
Sinusitis [1]: 2.1 (1) % (n)
Skin laceration [1]: 2.1 (1) % (n)
Stomach discomfort [1]: 0.0 (0) % (n)
Swelling face [1]: 0.0 (0) % (n)
Tendon injury [1]: 0.0 (0) % (n)
Tendonitis [1]: 2.1 (1) % (n)
Throat irritation [1]: 2.1 (1) % (n)
Tinnitus [1]: 2.1 (1) % (n)
Tooth abscess [1]: 0.0 (0) % (n)
Tooth infection [1]: 2.1 (1) % (n)
Toothache [1]: 2.1 (1) % (n)
Traumatic brain injury [1]: 2.1 (1) % (n)
Upper respiratory tract infection [1]: 6.4 (3) % (n)
Urinary tract infection [1]: 0.0 (0) % (n)
Urticaria [1]: 2.1 (1) % (n)
Viral upper respiratory tract infection [1]: 2.1 (1) % (n)
Vomiting [1]: 4.3 (2) % (n)
Wheezing [1]: 0.0 (0) % (n)
Ear and labyrinth disorders [2]: 2.1 (1) % (n)
Eye disorders [2]: 4.3 (2) % (n)
Gastrointestinal disorders [2]: 23.4 (11) % (n)
General disorders and administration site conditions [2]: 6.4 (3) % (n)
Hepatobiliary disorders [2]: 2.1 (1) % (n)
Immune system disorders [2]: 0.0 (0) % (n)
Infections and infestations [2]: 36.2 (17) % (n)
Injury, poisoning and procedural complications [2]: 17.0 (8) % (n)
Investigations [2]: 0.0 (0) % (n)
Metabolism and nutrition disorders [2]: 8.5 (4) % (n)
Neoplasms benign, malignant and unspecified (incl. cysts and polyps) [2]: 0.0 (0) % (n)
Nervous system disorders [2]: 6.4 (3) % (n)
Psychiatric disorders [2]: 4.3 (2) % (n)
Renal and urinary disorders [2]: 0.0 (0) % (n)
Respiratory, thoracic and mediastinal disorders [2]: 4.3 (2) % (n)
Vascular disorders [2]: 2.1 (1) % (n)
Total Subjects With at Least One TEAE (follow-on study, safety follow-on population, HZT-501 N = 132, Ibuprofen N = 47): 68.1 (32) % (n)
